# Results from patent publication EP2987533B1, “7-substituted piperazin-1-yl fluoroquinolone compounds, their use in the treatment of cancer, pharmaceutical compositions and a method for preparation” (priority 2014, dated 2016).
# Legend:
# prostate cancer = experiment: NCI five-dose SRB assay, subpanel average; conditions: 48 h; for GI50 / CC50: Homo sapiens; for GI50: read-out: GI50 (median growth inhibitory); for CC50: read-out: LC50 (median lethal); for TGI (total growth inhibitory): average over prostate cancer subpanel, five concentrations
# IGROV1 = experiment: NCI one-dose SRB growth assay; format: cell-based; conditions: Homo sapiens, IGROV-1; IGROV1 (Ovarian Cancer), 10^-5 M, 48 h; read-out: % Growth Inhibition (GI %)
# Description: (§1) A primary anticancer assay was performed for an approximately 60 human tumor cell line panel derived from nine neoplastic diseases, in accordance with the protocol of the Drug Evaluation Branch, National Cancer Institute, Bethesda, MD (Monks A. et al., J. Natl. Cancer Inst 1991, 83, 757-766; Boyd M.R. and Paull K.D., Drug. Dev. Res. 1995, 34, 91-109; Shoemaker R.H., Nat. Rev. Cancer 2006, 6, 813-823). Briefly, tested compounds were added to the culture at a single concentration (10^-5M), and the cultures were incubated for 48 h. End point determinations were made with a protein binding dye, sulforhodamine B (SRB). The results for each tested compound were reported as the growth percentage of the treated cells when compared to that of the untreated control cells. The percentage growth was evaluated spectrophotometrically versus controls not treated with test agents.
# ACHN = experiment: NCI one-dose SRB growth assay; format: cell-based; conditions: Homo sapiens; ACHN (Renal Cancer), 10^-5 M, 48 h; read-out: % Growth Inhibition (GI %)
# Description: as §1
# NCI-H522 = experiment: NCI one-dose SRB growth assay; format: cell-based; conditions: Homo sapiens; NCI-H522 (Non-Small Cell Lung Cancer), 10^-5 M, 48 h; read-out: % Growth Inhibition (GI %)
# Description: as §1
# HCT-116 = experiment: NCI one-dose SRB growth assay; format: cell-based; conditions: Homo sapiens; HCT-116 (Colon Cancer), 10^-5 M, 48 h; read-out: % Growth Inhibition (GI %)
# Description: as §1
# SF-295 = experiment: NCI one-dose SRB growth assay; format: cell-based; conditions: Homo sapiens; SF-295 (CNS Cancer), 10^-5 M, 48 h; read-out: % Growth Inhibition (GI %)
# Description: as §1
# HOP-62 = experiment: NCI one-dose SRB growth assay; format: cell-based; conditions: Homo sapiens; HOP-62 (Non-Small Cell Lung Cancer), 10^-5 M, 48 h; read-out: % Growth Inhibition (GI %)
# Description: as §1
# NCI-H23 = experiment: NCI one-dose SRB growth assay; format: cell-based; conditions: Homo sapiens; NCI-H23 (Non-Small Cell Lung Cancer), 10^-5 M, 48 h; read-out: % Growth Inhibition (GI %)
# Description: as §1
# UO-31 = experiment: NCI one-dose SRB growth assay; format: cell-based; conditions: Homo sapiens; UO-31 (Renal Cancer), 10^-5 M, 48 h; read-out: % Growth Inhibition (GI %)
# Description: as §1
# SK-MEL-5 = experiment: NCI one-dose SRB growth assay; format: cell-based; conditions: Homo sapiens; SK-MEL-5 (Melanoma), 10^-5 M, 48 h; read-out: % Growth Inhibition (GI %)
# Description: as §1
# SK-OV-3 = experiment: NCI one-dose SRB growth assay; format: cell-based; conditions: Homo sapiens; SK-OV-3 (Ovarian Cancer), 10^-5 M, 48 h; read-out: % Growth Inhibition (GI %)
# Description: as §1
# MDA-MB-435 = experiment: NCI one-dose SRB growth assay; format: cell-based; conditions: Homo sapiens; MDA-MB-435 (Melanoma), 10^-5 M, 48 h; read-out: % Growth Inhibition (GI %)
# Description: as §1
# OVCAR-8 = experiment: NCI one-dose SRB growth assay; format: cell-based; conditions: Homo sapiens; OVCAR-8 (Ovarian Cancer), 10^-5 M, 48 h; read-out: % Growth Inhibition (GI %)
# Description: as §1
# SW-620 = experiment: NCI one-dose SRB growth assay; format: cell-based; conditions: Homo sapiens; SW-620 (Colon Cancer), 10^-5 M, 48 h; read-out: % Growth Inhibition (GI %)
# Description: as §1
# A549/ATCC = experiment: NCI one-dose SRB growth assay; format: cell-based; conditions: Homo sapiens; A549/ATCC (Non-Small Cell Lung Cancer), 10^-5 M, 48 h; read-out: % Growth Inhibition (GI %)
# Description: as §1
# HL-60(TB) = experiment: NCI one-dose SRB growth assay; format: cell-based; conditions: Homo sapiens; HL-60(TB) (Leukemia), 10^-5 M, 48 h; read-out: % Growth Inhibition (GI %)
# Description: as §1
# TK-10 = experiment: NCI one-dose SRB growth assay; format: cell-based; conditions: Homo sapiens; TK-10 (Renal Cancer), 10^-5 M, 48 h; read-out: % Growth Inhibition (GI %)
# Description: as §1
# SR = experiment: NCI one-dose SRB growth assay; format: cell-based; conditions: Homo sapiens; SR (Leukemia), 10^-5 M, 48 h; read-out: % Growth Inhibition (GI %)
# Description: as §1
# NCI-H226 = experiment: NCI one-dose SRB growth assay; format: cell-based; conditions: Homo sapiens; NCI-H226 (Non-Small Cell Lung Cancer), 10^-5 M, 48 h; read-out: % Growth Inhibition (GI %)
# Description: as §1
# melanoma = experiment: NCI five-dose SRB assay, subpanel average; conditions: 48 h; for GI50 / CC50: Homo sapiens; for GI50: read-out: GI50 (median growth inhibitory); for CC50: read-out: LC50 (median lethal); for TGI (total growth inhibitory): average over melanoma subpanel, five concentrations
# CNS cancer = experiment: NCI five-dose SRB assay, subpanel average; conditions: 48 h; for GI50 / CC50: Homo sapiens; for GI50: read-out: GI50 (median growth inhibitory); for CC50: read-out: LC50 (median lethal); for TGI (total growth inhibitory): average over CNS cancer subpanel, five concentrations
# [1] = system: 60 human tumor cell line panel; experiment: NCI 60 cell line one-dose SRB primary anticancer assay; format: cell-based; conditions: 60 cell lines assay in one dose, 10µM (title; head prints 10.0 mM), 48 h; for inhibition at 10 µM: Homo sapiens, read-out: MGI % (Mean growth inhibition percentage)
# Description: as §1
# breast cancer = experiment: NCI five-dose SRB assay, subpanel average; conditions: 48 h; for GI50 / CC50: Homo sapiens; for GI50: read-out: GI50 (median growth inhibitory); for CC50: read-out: LC50 (median lethal); for TGI (total growth inhibitory): average over breast cancer subpanel, five concentrations
# leukemia = experiment: NCI five-dose SRB assay, subpanel average; conditions: 48 h; for GI50 / CC50: Homo sapiens; for GI50: read-out: GI50 (median growth inhibitory); for CC50: read-out: LC50 (median lethal); for TGI (total growth inhibitory): average over leukemia subpanel, five concentrations
# NSC lung cancer = experiment: NCI five-dose SRB assay, subpanel average; conditions: 48 h; for GI50 / CC50: Homo sapiens; for GI50: read-out: GI50 (median growth inhibitory); for CC50: read-out: LC50 (median lethal); for TGI (total growth inhibitory): average over NSC lung cancer subpanel, five concentrations
# renal cancer = experiment: NCI five-dose SRB assay, subpanel average; conditions: 48 h; for GI50 / CC50: Homo sapiens; for GI50: read-out: GI50 (median growth inhibitory); for CC50: read-out: LC50 (median lethal); for TGI (total growth inhibitory): average over renal cancer subpanel, five concentrations
smiles,measurement,setting,value
O=C(O)c1cn(C2CC2)c2cc(N3CCN(S(=O)(=O)c4ccc(Cl)c(Cl)c4)CC3)c(F)cc2c1=O [Compound 3b],GI50,prostate cancer,3.29 µM
same,CC50,prostate cancer,> 100 µM
same,TGI (total growth inhibitory),prostate cancer,c (Compounds showed values > 100µM)
same,inhibition at 10 µM,IGROV1,70.7%
same,inhibition at 10 µM,ACHN,95%
same,inhibition at 10 µM,NCI-H522,> 100%
same,inhibition at 10 µM,HCT-116,96%
same,inhibition at 10 µM,SF-295,> 100%
same,inhibition at 10 µM,HOP-62,84.8%
same,inhibition at 10 µM,NCI-H23,98.2%
same,inhibition at 10 µM,UO-31,90%
same,inhibition at 10 µM,SK-MEL-5,97.9%
same,inhibition at 10 µM,SK-OV-3,73.2%
same,inhibition at 10 µM,MDA-MB-435,87%
same,inhibition at 10 µM,OVCAR-8,94.5%
same,inhibition at 10 µM,SW-620,79.3%
same,inhibition at 10 µM,A549/ATCC,94%
same,inhibition at 10 µM,HL-60(TB),> 100%
same,inhibition at 10 µM,TK-10,66.8%
same,inhibition at 10 µM,SR,> 100%
same,inhibition at 10 µM,NCI-H226,58.6%
same,GI50,melanoma,2.54 µM
same,CC50,melanoma,87.1 µM
same,TGI (total growth inhibitory),melanoma,52.41 µM
same,GI50,CNS cancer,3.68 µM
same,CC50,CNS cancer,> 100 µM
same,TGI (total growth inhibitory),CNS cancer,c (Compounds showed values > 100µM)
same,PCE (Positive cytotoxic effect: ratio between number of cell lines with percentage growth inhibition from 10 to >100 and total number of cell lines),[1],58/58
same,RGI % (Range of growth inhibition percentage),[1],>100.0 to 46.49%
same,inhibition at 10 µM,[1],89.2%
same,GI50,breast cancer,3.04 µM
same,CC50,breast cancer,> 100 µM
same,TGI (total growth inhibitory),breast cancer,81.37 µM
same,GI50,leukemia,3.02 µM
same,CC50,leukemia,> 100 µM
same,TGI (total growth inhibitory),leukemia,62.55 µM
same,GI50,NSC lung cancer,3.07 µM
same,CC50,NSC lung cancer,> 100 µM
same,TGI (total growth inhibitory),NSC lung cancer,84.28 µM
same,GI50,renal cancer,3.19 µM
same,CC50,renal cancer,> 100 µM
same,TGI (total growth inhibitory),renal cancer,87.07 µM
CCn1cc(C(=O)O)c(=O)c2cc(F)c(N3CCN(S(=O)(=O)c4cccc5ccccc45)CC3)cc21 [Compound 7a],GI50,prostate cancer,3.71 µM
same,CC50,prostate cancer,> 100 µM
same,TGI (total growth inhibitory),prostate cancer,c (Compounds showed values > 100µM)
same,inhibition at 10 µM,IGROV1,86.3%
same,inhibition at 10 µM,ACHN,> 100%
same,inhibition at 10 µM,NCI-H522,> 100%
same,inhibition at 10 µM,HCT-116,94.5%
same,inhibition at 10 µM,SF-295,92.3%
same,inhibition at 10 µM,HOP-62,84.9%
same,inhibition at 10 µM,NCI-H23,99.9%
same,inhibition at 10 µM,UO-31,> 100%
same,inhibition at 10 µM,SK-MEL-5,> 100%
same,inhibition at 10 µM,SK-OV-3,84.4%
same,inhibition at 10 µM,MDA-MB-435,88.6%
same,inhibition at 10 µM,OVCAR-8,91.6%
same,inhibition at 10 µM,SW-620,77.2%
same,inhibition at 10 µM,A549/ATCC,96.2%
same,inhibition at 10 µM,HL-60(TB),> 100%
same,inhibition at 10 µM,TK-10,74%
same,inhibition at 10 µM,SR,97.8%
same,inhibition at 10 µM,NCI-H226,78.1%
same,GI50,melanoma,3.2 µM
same,CC50,melanoma,99.7 µM
same,TGI (total growth inhibitory),melanoma,28.33 µM
same,GI50,CNS cancer,3.09 µM
same,CC50,CNS cancer,> 100 µM
same,TGI (total growth inhibitory),CNS cancer,63.40 µM
same,PCE (Positive cytotoxic effect: ratio between number of cell lines with percentage growth inhibition from 10 to >100 and total number of cell lines),[1],58/58
same,RGI % (Range of growth inhibition percentage),[1],>100.0 to 40.83%
same,inhibition at 10 µM,[1],93.8%
same,GI50,breast cancer,2.81 µM
same,CC50,breast cancer,> 100 µM
same,TGI (total growth inhibitory),breast cancer,38.49 µM
same,GI50,leukemia,3.48 µM
same,CC50,leukemia,> 100 µM
same,TGI (total growth inhibitory),leukemia,63.22 µM
same,GI50,NSC lung cancer,3.04 µM
same,CC50,NSC lung cancer,> 100 µM
same,TGI (total growth inhibitory),NSC lung cancer,46.59 µM
same,GI50,renal cancer,3.5 µM
same,CC50,renal cancer,> 100 µM
same,TGI (total growth inhibitory),renal cancer,63.09 µM
O=C(O)c1cn(C2CC2)c2cc(N3CCN(S(=O)(=O)c4ccc(Cl)cc4Cl)CC3)c(F)cc2c1=O [Compound 2b],inhibition at 10 µM,IGROV1,< 10%
same,inhibition at 10 µM,ACHN,14.9%
same,inhibition at 10 µM,NCI-H522,< 10%
same,inhibition at 10 µM,HCT-116,13.4%
same,inhibition at 10 µM,SF-295,< 10%
same,inhibition at 10 µM,HOP-62,11.8%
same,inhibition at 10 µM,NCI-H23,16.8%
same,inhibition at 10 µM,UO-31,40%
same,inhibition at 10 µM,SK-MEL-5,79.8%
same,inhibition at 10 µM,SK-OV-3,< 10%
same,inhibition at 10 µM,MDA-MB-435,< 10%
same,inhibition at 10 µM,OVCAR-8,< 10%
same,inhibition at 10 µM,SW-620,< 10%
same,inhibition at 10 µM,A549/ATCC,< 10%
same,inhibition at 10 µM,HL-60(TB),13.1%
same,inhibition at 10 µM,TK-10,< 10%
same,inhibition at 10 µM,SR,17.7%
same,inhibition at 10 µM,NCI-H226,39.7%
same,PCE (Positive cytotoxic effect: ratio between number of cell lines with percentage growth inhibition from 10 to >100 and total number of cell lines),[1],30/58
same,RGI % (Range of growth inhibition percentage),[1],79.75 to 11.78%
same,inhibition at 10 µM,[1],17.4%
